In patent US8791267B2, “Biaryl PDE4 inhibitors for treating inflammatory, cardiovascular and CNS disorders” (Decode Genetics EHF, priority 2007, dated 2014) one finds IC50 data, which are given here for 15 molecules.

pIC50: −log10 of the molar value. Counter-ions that a name gives are not always drawn.

The target in one test is PDE4B (Homo sapiens, UniProt Q07343). Nature of the test: In-vitro assay for PDE4 enzymes, real-time enzyme-coupled spectrophotometric assay, PDE4B Activity (Table 10). It is filed as biochemical. To be noted: human PDE4B (hPDE4B), enzyme-coupled spectrophotometric assay; read-out: PDE4B Activity, hPDE4B.
PDE4B, sequence (Q07343 whole entry): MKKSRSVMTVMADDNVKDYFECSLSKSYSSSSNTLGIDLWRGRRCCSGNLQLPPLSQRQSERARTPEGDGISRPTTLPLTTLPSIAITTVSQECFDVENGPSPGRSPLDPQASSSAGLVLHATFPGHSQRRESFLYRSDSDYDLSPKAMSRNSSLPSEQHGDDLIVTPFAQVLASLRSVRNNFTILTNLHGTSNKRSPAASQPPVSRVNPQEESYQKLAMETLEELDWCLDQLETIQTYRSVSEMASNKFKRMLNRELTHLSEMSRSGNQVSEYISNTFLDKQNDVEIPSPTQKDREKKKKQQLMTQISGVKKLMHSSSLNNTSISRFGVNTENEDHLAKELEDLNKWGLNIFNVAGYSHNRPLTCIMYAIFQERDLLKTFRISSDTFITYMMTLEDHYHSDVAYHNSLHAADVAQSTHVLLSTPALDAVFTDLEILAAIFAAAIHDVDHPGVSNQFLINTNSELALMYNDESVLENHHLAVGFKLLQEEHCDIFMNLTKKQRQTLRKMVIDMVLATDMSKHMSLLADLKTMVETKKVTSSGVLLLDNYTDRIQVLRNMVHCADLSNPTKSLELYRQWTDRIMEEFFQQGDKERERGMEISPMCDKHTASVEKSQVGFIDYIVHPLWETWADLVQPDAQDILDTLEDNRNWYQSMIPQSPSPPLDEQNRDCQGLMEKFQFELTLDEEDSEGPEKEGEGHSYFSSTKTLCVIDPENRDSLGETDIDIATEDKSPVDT
The next test addresses PDE4 (Homo sapiens, UniProt Q08499). Nature of the test: In-vitro assay for PDE4 enzymes, real-time enzyme-coupled spectrophotometric assay (Table 9). It is filed as biochemical. To be noted: human PDE4D; activity class, Table 9; read-out: hPDE4D.

PDE4, sequence (Q08499 whole entry): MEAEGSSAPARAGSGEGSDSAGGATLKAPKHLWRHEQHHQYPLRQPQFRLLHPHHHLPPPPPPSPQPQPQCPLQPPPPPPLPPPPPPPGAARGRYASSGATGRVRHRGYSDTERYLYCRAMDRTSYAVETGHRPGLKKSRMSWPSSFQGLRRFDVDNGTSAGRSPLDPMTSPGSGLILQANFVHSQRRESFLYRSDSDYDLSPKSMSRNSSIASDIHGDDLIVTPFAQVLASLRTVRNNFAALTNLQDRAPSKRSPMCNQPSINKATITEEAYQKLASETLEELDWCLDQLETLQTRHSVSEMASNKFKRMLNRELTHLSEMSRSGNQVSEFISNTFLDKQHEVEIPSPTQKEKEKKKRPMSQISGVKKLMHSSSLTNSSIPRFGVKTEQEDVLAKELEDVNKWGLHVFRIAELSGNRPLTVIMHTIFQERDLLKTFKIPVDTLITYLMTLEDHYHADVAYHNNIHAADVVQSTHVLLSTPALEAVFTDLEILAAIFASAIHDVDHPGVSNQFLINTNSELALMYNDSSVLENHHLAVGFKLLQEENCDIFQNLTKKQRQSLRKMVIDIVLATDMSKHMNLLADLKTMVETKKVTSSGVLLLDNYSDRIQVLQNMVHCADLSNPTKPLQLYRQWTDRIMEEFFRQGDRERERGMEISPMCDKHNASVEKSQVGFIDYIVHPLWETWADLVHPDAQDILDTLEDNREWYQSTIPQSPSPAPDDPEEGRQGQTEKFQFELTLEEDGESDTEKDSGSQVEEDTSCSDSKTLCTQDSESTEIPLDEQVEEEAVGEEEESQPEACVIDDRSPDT

For the molecule `COc1ccc(Cc2ccc(N)nc2)nc1-c1cccc(Cl)c1` [P-379, 5-[6-(3-chloro-phenyl)-5-methoxy-pyridin-2-ylmethyl]-pyridin-2-ylamine], the pIC50 on PDE4B and on PDE4 was above 5.30 throughout.

With `COc1ccc(Cc2ccc(C(=O)N(C)C)nc2)c(F)c1-c1cccc(Cl)c1` [P-382, 5-(3′-Chloro-2-fluoro-6-methoxy-biphenyl-3-ylmethyl)-pyridine-2-carboxylic acid dimethylamide], the pIC50 at PDE4B and on PDE4 was above 5.30 in each case.

Take `CCNC(=O)Nc1ccc(Cc2ccc(OC)c(-c3cccc(Cl)c3)n2)cn1` [P-386, 1-{5-[6-(3-chloro-phenyl)-5-methoxy-pyridin-2-ylmethyl]-pyridin-2-yl}-3-ethyl-urea hydrochloride]: the pIC50 on PDE4B and at PDE4 was above 5.30 throughout.

Take `COc1ccc(Cc2ccc(NC(C)=O)nc2)c(F)c1-c1cccc(Cl)c1` [P-387]: the pIC50 on PDE4B and at PDE4 was above 5.30 throughout.

Regarding `COc1ccc(Cc2ccc(N3CCNC3=O)nc2)c(F)c1-c1cccc(Cl)c1` [P-388, 1-[5-(3′-Chloro-2-fluoro-6-methoxy-biphenyl-3-ylmethyl)-pyridin-2-yl]-imidazolidin-2-one], the pIC50 at PDE4B and at PDE4 was above 5.30 in each case.

Consider `COc1ccc(Cc2cnc(Cl)nc2)c(F)c1-c1cccc(Cl)c1` [P-392], for which the pIC50 on PDE4B and on PDE4 was above 5.30 throughout.

In the case of `COc1ccc(Cc2cnc(N3CC(O)C3)nc2)c(F)c1-c1cccc(Cl)c1` [P-393, 1-[5-(3′-Chloro-2-fluoro-6-methoxy-biphenyl-3-ylmethyl)-pyrimidin-2-yl]-azetidin-3-ol], the pIC50 at PDE4B and at PDE4 was above 5.30 throughout.

For `COc1ccc(Cc2ccc(NC(N)=O)cc2)cc1-c1cccc(C#N)c1` [P-394, [4-(3′-Cyano-6-methoxy-biphenyl-3-ylmethyl)-phenyl]-urea], the pIC50 on PDE4B and on PDE4 was above 5.30 each time.

`COc1ccc(Cc2cnc(N)nc2)c(F)c1-c1cccc(C#N)c1` [P-395, 3′-(2-Amino-pyrimidin-5-ylmethyl)-2′-fluoro-6′-methoxy-biphenyl-3-carbonitrile]: the pIC50 on PDE4B and at PDE4 was above 5.30 in each case.

`CCNC(=O)Nc1ccc(Cc2ccc(OC)c(-c3cccc(Cl)c3)c2F)c[n+]1[O-]` [P-397, 1-[5-(3′-Chloro-2-fluoro-6-methoxy-biphenyl-3-ylmethyl)-1-oxy-pyridin-2-yl]-3-ethyl-urea]: the pIC50 at PDE4B and on PDE4 was above 5.30 in each case.

`CCOC(=O)Nc1ccc(Cc2ccc(OC)c(-c3cccc(C#N)c3)c2F)cn1` [P-398, [5-(3′-Cyano-2-fluoro-6-methoxy-biphenyl-3-ylmethyl)-pyridin-2-yl]-carbamic acid ethyl ester]: the pIC50 at PDE4B and on PDE4 was above 5.30 throughout.

With `CCNC(=O)Nc1ncc(Cc2ccc(OC)c(-c3cccc(C#N)c3)c2F)cn1` [P-399, 1-[5-(3′-Cyano-2-fluoro-6-methoxy-biphenyl-3-ylmethyl)-pyrimidin-2-yl]-3-ethyl-urea], the pIC50 at PDE4B and at PDE4 was above 5.30 each time.

Consider `CCNC(=O)Nc1ccc(Cc2ccc(OC)c(-c3cccc(C#N)c3)c2)cn1` [P-400, 1-[5-(3′-Cyano-6-methoxy-biphenyl-3-ylmethyl)-pyridin-2-yl]-3-ethyl-urea], for which the pIC50 on PDE4B and on PDE4 was above 5.30 throughout.

Take `COc1ccc(Cc2ccc(C(N)=O)nc2)c(F)c1-c1cccc(Cl)c1` [P-401, 5-(3′-Chloro-2-fluoro-6-methoxy-biphenyl-3-ylmethyl)-pyridine-2-carboxylic acid amide]: the pIC50 on PDE4B and at PDE4 was above 5.30 throughout.

As to `COc1ccc(Cc2ccc(Br)nc2)c(F)c1-c1cccc(Cl)c1` [P-402, 2-Bromo-5-(3′-chloro-2-fluoro-6-methoxy-biphenyl-3-ylmethyl)-pyridine], the pIC50 at PDE4B and at PDE4 was above 5.30 in each case.
